Laboratory results published in patent US10413532B2, “Pharmaceutical compositions containing a PDE4 inhibitor and a PI3 delta or dual PI3 delta-gamma kinase inhibitor” (Rhizen Pharmaceuticals SA, priority 2012, dated 2019).
Where two headings read alike, the source gives them in different places.

Assays:
[1] = system: IFNγ; assay: Con A+PMA induced IFNγ in PBMC; type: cell-based; conditions: 10 nM alone
Procedure: (§1) PBMC from whole blood were isolated by density gradient using Histopaque and incubated with the desired concentration of inhibitor for 15 minutes. Cytokine release was induced with the addition of Concanavalin A (25 μg/ml)+Phorbol Myristate Acetate (50 ng/ml). Supernatant was collected after 20 hours and IFNγ was estimated using an ELISA kit.

[2] = system: IFNγ; assay: Con A+PMA induced IFNγ in human whole blood (HWB); type: cell-based; conditions: 10 nM alone
Procedure: as §1, with “Freshly collected HWB was diluted with media” for “PBMC from whole blood were isolated by density gradient using Histopaque”, “The supernatant” for “Supernatant”

[3] = system: neutrophil infiltration; assay: Lipopolysaccharide induced pulmonary neutrophilia in female Wistar rats; type: in vivo
Procedure: After the quarantine period, fasted animals were randomized and divided into groups depending on their body weights. Test compound was prepared as a suspension in a vehicle consisting of 0.5% methylcellulose in which Tween 80 was used as a suspending agent. Compounds or vehicle were administered by oral gavage in a volume of 10 mL/kg. Animals were anaesthetized with ketamine and LPS solution was administered intratracheally 30 minutes after compound administration at a dose of 1 mg/kg. Six hours after LPS instillation, animals were exsanguinated under anaesthesia, and the trachea was cannulated, and lungs were lavaged with 5-ml aliquots of heparinised PBS (1 unit/ml) four times through the tracheal cannula (total volume 20 ml). Bronchioalveolar (BAL) fluid was stored at 2-8° C. until assayed for total cell and differential leukocyte count. BAL fluid was centrifuged (500×g for 10 min) and the resulting cell pellet was resuspended in 0.5 ml of heparinised saline. The total numbers of white blood cells were determined in BAL fluid or blood using a cell counter and were adjusted to 1×10^6 cell/ml. Differential cell count was calculated manually. One hundred microliters of the cell suspension was centrifuged using cytospin 3 to prepare a cell smear. The cell smear was stained with a blood staining solution for differentiation and slides were microscopically observed to identify eosinophils according to their morphological characteristics. The number of each cell type among 300 white blood cells in the cell smear was determined and expressed as a percentage of total cells. The number of eosinophil in BALF was calculated.
The procedure for LPS induced pulmonary neutrophilia in female Wistar rats as described in Example 1 was performed with compound A1 and roflumilast.

[4] = system: macrophage and neutrophil infiltration; assay: Acute cigarette smoke induced cell infiltration in male Balb/c mice; type: in vivo; conditions: acute CS; for ED50: oral
Procedure: Animals were acclimatized for seven days prior to the start of the experiment. Animals were randomly distributed to various groups based on their body weights. On day 1, mice were administered by test compound or vehicle by the oral route and after 30 mins test compound administration animals were placed in a whole body exposure box. The mice were exposed to the mainstream smoke of 6 cigarettes from day 1 to day 4. Exposure to the smoke of each cigarette lasted for 10 min (cigarettes were completely burned in the first two minutes and followed by an air flow with animal ventilator) followed by exposure for the next 20 min with fresh room air. After every second cigarette an additional break of 20 min with exposure to fresh room air was conducted. Control animals were exposed to the room air chamber. From day 1 to day 4 animals were administered test compound by the oral route. On day 5, 24 hours after the last cigarette smoke (CS) exposure. animals were exsanguinated under anaesthesia, and the trachea was cannulated and the lungs were lavaged with 0.5 ml aliquots of heparinised PBS (1 unit/ml) four times through a tracheal cannula (total volume 2 ml). Bronchioalveolar (BAL) collected was stored at 2-8° C. until assayed for total cell and differential leukocyte count. BAL fluid was centrifuged (500×g for 10 min) and the resulting cell pellet was resuspended in 0.5 ml of heparinised saline. The total number of white blood cells was determined in BAL fluid and blood using a blood cell counter and adjusted to 1×10^6 cell/ml. Differential cell count was calculated manually. Forty microliters of the cell suspension was centrifuged using cytospin 3 to prepare a cell smear. The cell smear was stained with a blood staining solution for differentiation and microscopically observed by identifying each cell according to its morphological characteristics. The number of each cell type among 300 white blood cells in the cell smear were determined and expressed as a percentage, and the number of neutrophils and macrophages in each BAL fluid were calculated.
The procedure for acute cigarette smoke induced cell infiltration in male Balb/c mice described in Example 1 was performed with Compound A1 and roflumilast

[5] = system: TNFα; assay: LPS induced TNFα in human whole blood (HWB); type: cell-based; conditions: 100 nM alone
Procedure: Freshly collected HWB was diluted with media and incubated with the desired concentration of inhibitor for 15 min. LPS (1 μg/ml) was added and then incubated for 24 hours. The supernatant was collected and TNFα estimated using an eBioscience TNFα ELISA kit.
Freshly collected HWB was diluted with media and incubated with the desired concentration of inhibitor for 15 minutes. LPS (1 μg/ml) was added and then incubated for 24 hours. The supernatant was collected and TNFα estimated using an eBioscience TNFα ELISA kit.

[6] = system: TNFα; assay: LPS induced TNFα in MH-S (mouse alveolar macrophage) cells; type: cell-based
Procedure: (§2) MH-S represents a mouse alveolar macrophage cell line that secretes copious amounts of TNFα upon induction by LPS. Cells were plated at 150,000 cells per well. 10 nM of Compound A1 (final concentration) was added 15 minutes prior to the addition of roflumilast. LPS (1 μg/ml) was added and then incubated for 4 hours. The supernatant was collected after 20 hours and TNFα was estimated using an ELISA kit.

[7] = molecular target: PI3K Delta (Homo sapiens, UniProt O00329); assay: PI3K Delta enzyme inhibition; type: biochemical
[8] = molecular target: PI3K Gamma (Homo sapiens, UniProt P48736); assay: PI3K Gamma enzyme inhibition; type: biochemical
[9] = system: TNFα; assay: LPS induced TNFα in THP-1 (human monocyte) cells; type: cell-based; conditions: compound alone; THP-1 cells, LPS 1 μg/ml
Procedure: as §2, with “THP-1” for “MH-S”, “monocytic” for “mouse alveolar macrophage”, “that has elevated endogenous pAKT levels and” for “that”

Chain of PI3K Gamma (P48736 whole entry, species assumed): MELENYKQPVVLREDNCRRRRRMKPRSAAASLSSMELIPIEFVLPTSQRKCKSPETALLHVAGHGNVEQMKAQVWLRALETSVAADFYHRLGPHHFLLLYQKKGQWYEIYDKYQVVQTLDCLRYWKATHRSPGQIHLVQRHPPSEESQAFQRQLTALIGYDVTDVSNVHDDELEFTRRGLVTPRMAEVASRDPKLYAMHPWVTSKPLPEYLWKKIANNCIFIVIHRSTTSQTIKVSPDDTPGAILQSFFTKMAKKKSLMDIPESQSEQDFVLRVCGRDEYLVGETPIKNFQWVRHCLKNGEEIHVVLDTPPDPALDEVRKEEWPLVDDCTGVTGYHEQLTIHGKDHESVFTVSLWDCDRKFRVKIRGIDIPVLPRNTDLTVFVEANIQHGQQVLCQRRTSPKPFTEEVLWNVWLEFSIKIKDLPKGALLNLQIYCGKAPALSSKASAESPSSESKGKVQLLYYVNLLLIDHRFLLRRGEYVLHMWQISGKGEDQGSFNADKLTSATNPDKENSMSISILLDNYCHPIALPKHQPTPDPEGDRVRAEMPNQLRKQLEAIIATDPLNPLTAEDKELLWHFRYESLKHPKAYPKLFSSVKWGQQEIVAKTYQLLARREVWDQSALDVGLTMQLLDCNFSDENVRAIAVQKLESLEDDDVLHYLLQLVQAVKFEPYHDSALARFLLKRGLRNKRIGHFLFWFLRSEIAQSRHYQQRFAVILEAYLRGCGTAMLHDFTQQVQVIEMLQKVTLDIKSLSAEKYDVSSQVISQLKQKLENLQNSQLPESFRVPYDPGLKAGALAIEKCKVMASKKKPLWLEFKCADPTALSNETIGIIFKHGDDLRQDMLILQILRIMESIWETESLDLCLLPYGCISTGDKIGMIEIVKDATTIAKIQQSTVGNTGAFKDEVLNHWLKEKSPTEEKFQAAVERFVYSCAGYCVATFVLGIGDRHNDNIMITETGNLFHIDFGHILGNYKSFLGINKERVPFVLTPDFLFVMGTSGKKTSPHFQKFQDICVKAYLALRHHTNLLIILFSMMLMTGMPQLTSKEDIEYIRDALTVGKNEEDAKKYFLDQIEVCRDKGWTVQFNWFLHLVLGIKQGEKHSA
Chain of PI3K Delta (O00329 whole entry, species assumed): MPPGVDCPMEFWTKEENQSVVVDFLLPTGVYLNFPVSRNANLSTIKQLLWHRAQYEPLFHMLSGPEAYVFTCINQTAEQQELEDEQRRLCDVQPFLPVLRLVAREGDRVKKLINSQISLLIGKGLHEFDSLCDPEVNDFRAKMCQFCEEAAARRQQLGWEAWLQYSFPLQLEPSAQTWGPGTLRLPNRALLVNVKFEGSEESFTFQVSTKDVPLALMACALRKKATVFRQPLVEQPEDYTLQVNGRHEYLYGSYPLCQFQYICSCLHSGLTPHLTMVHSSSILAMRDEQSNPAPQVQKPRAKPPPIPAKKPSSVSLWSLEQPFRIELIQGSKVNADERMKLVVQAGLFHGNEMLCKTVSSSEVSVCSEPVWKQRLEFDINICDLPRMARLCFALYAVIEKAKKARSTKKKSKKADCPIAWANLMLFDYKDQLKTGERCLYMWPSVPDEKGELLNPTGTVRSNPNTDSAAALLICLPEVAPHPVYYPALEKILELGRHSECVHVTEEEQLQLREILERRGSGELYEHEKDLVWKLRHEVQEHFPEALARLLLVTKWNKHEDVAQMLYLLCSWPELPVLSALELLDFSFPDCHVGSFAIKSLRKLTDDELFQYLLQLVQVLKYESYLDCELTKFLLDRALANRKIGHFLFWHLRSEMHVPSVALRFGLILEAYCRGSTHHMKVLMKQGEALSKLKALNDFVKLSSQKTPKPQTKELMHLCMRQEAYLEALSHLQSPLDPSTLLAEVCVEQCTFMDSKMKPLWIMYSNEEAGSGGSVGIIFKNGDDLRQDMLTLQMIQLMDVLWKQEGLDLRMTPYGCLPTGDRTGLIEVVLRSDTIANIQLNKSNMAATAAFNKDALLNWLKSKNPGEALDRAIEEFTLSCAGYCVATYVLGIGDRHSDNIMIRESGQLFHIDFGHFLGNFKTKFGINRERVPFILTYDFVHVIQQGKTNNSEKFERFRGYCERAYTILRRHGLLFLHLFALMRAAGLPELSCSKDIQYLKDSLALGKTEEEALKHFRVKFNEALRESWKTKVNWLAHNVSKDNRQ
Chain of PI3K Delta (P27986 whole entry partner, species assumed): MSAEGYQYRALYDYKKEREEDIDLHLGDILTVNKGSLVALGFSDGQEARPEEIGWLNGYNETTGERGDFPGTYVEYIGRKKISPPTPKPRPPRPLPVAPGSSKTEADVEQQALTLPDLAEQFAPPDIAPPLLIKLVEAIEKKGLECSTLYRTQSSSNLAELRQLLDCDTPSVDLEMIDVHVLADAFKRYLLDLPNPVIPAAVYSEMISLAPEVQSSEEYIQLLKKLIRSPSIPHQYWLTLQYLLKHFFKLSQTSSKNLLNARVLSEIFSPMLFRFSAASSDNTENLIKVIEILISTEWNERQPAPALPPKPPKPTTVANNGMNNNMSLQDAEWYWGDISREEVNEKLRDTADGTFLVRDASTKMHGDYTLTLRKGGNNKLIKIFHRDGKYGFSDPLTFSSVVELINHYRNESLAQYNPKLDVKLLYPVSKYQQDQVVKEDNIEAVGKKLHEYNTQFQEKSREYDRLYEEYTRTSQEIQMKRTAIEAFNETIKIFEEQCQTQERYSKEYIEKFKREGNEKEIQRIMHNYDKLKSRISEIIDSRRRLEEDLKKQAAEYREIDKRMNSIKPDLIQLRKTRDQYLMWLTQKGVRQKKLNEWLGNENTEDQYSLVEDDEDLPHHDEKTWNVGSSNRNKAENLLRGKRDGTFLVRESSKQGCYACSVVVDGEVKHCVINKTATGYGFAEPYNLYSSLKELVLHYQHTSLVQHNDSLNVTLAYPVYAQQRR

In the case of `CC(C)Oc1ccc(-c2nn(C(C)c3oc4cccc(F)c4c(=O)c3-c3cccc(F)c3)c3ncnc(N)c23)cc1F` (single isomer, unassigned; (+)) [Compound A1, (+)-2-(1-(4-amino-3-(3-fluoro-4-isopropoxyphenyl)-1H-pyrazolo[3,4-d]pyrimidin-1-yl)ethyl)-5-fluoro-3-(3-fluorophenyl)-4H-chromen-4-one], the “effect on IFNγ secretion” value [1] is reported as “did not affect IFNγ secretion”, the “effect on IFNγ secretion” value [2] is reported as “did not affect IFNγ secretion” and the “percent inhibition of neutrophil infiltration” value ([3]; 0.1 mg/kg oral, rat BAL fluid 6 h after LPS) is reported as 17.83%. For the same molecule, the “percent inhibition of neutrophil infiltration” value ([3]; 1 mg/kg oral, dose-response study, rat) was 51.76%, the “percent inhibition of neutrophil infiltration” value ([3]; 10 mg/kg oral, rat) was 70.21% and the ED50 ([3]; Neutrophil, oral, rat LPS pulmonary neutrophilia, read-out: 50% inhibition (ED50) dose, neutrophil infiltration) was 1.3 mg/kg. For the same molecule, the “inhibition of neutrophil infiltration” value ([3]; combination study, alone at 1.3 mg/kg, rat) was 43.02%, the “percent inhibition of neutrophil infiltration” value ([4]; 0.1 mg/kg oral, mouse) was 14.76% and the “percent inhibition of macrophage infiltration” value ([4]; 0.1 mg/kg oral, mouse BAL) was 20.60%. The “percent inhibition of neutrophil infiltration” value ([4]; 0.3 mg/kg oral, mouse) was 51.31%, the “percent inhibition of macrophage infiltration” value ([4]; 0.3 mg/kg oral, dose-response study, mouse) was 75.19% and the “percent inhibition of macrophage infiltration” value ([4]; 1 mg/kg oral, mouse) was 93.11%. For the same molecule, the “percent inhibition of neutrophil infiltration” value ([4]; 1 mg/kg oral, mouse) was 112.83%, the ED50 ([4]; Macrophage, mouse, read-out: 50% inhibition (ED50) dose, macrophage infiltration) was 0.2 mg/kg and the ED50 ([4]; Neutrophil, mouse, read-out: dose of 50% inhibition (ED50) of neutrophil infiltration) was 0.26 mg/kg. The “inhibition of neutrophil infiltration” value ([4]; combination study, alone at 0.25 mg/kg, mouse) was 36.69%, the “inhibition of macrophage infiltration” value ([4]; combination study, alone at 0.3 mg/kg, mouse) was 31.33% and the “effect on TNFα secretion” value [5] was “did not affect TNFα secretion”. The “decrease in TNFα secretion” value ([6]; 15 nM alone) was about 10%, the “inhibition of TNFα” value ([6]; compound alone, LPS 1 μg/ml) was “dose-dependently inhibited TNFα” and the IC50 [7] was under 40 nM. The IC50 [8] was under 40 nM and the “inhibition of TNFα” value [9] was “dose-dependently inhibited TNFα”.
